Calls of active or inactive are those of the source.
Tests used:
[1] = cytotoxicity in HEK-293T cells, dose response, cytotoxicity control for BCR NF-kB inhibitor project, luminescence, B-cell screen hits (AID 489021); assay type: functional, cell-based;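 further: HEK-293T cells carrying an NF-kB luciferase reporter; cells exposed to compound for about 14 hours before viability readout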
[2] = inhibitors of firefly luciferase expression or activity, dose response, H4 neuroglioma cells, luminescence (AID 1990); assay type: functional, cell-based
[3] = inhibitors of SNCA 5'UTR-driven reporter translation, confirmation, H4 neuroglioma cells, luminescence (AID 1988); assay type: functional, cell-based
[4] = Luminescence Cell-Based Dose Response HTS to Identify Inhibitors of 5'UTR Stem-Loop Driven Prion Protein mRNA Translation in H4 Neuroglioblastoma Cells. [Related pubchem assays: 1827 (Project Summary), 1813 (Primary HTS)]; assay type: functional
[5] = cytotoxicity toward NIH3T3 fibroblasts, dose response, counter-screen, cell-based, ATP luminescence, mouse fibroblasts (AID 2010); assay type: functional;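 further: cells exposed to compound for about 90 hours before reading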
[6] = target: T1, Short transient receptor potential channel 4 (Mus musculus, UniProt Q9QUQ5); assay: mouse TRPC4 channel inhibitors, dose response, cell-based, HEK293 TRPC4/mu-opioid, Fluo-4 calcium (AID 434942); assay type: functional;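 further: potency of inhibitors blocking the TRPC4 calcium response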
T1 sequence (Q9QUQ5 whole entry): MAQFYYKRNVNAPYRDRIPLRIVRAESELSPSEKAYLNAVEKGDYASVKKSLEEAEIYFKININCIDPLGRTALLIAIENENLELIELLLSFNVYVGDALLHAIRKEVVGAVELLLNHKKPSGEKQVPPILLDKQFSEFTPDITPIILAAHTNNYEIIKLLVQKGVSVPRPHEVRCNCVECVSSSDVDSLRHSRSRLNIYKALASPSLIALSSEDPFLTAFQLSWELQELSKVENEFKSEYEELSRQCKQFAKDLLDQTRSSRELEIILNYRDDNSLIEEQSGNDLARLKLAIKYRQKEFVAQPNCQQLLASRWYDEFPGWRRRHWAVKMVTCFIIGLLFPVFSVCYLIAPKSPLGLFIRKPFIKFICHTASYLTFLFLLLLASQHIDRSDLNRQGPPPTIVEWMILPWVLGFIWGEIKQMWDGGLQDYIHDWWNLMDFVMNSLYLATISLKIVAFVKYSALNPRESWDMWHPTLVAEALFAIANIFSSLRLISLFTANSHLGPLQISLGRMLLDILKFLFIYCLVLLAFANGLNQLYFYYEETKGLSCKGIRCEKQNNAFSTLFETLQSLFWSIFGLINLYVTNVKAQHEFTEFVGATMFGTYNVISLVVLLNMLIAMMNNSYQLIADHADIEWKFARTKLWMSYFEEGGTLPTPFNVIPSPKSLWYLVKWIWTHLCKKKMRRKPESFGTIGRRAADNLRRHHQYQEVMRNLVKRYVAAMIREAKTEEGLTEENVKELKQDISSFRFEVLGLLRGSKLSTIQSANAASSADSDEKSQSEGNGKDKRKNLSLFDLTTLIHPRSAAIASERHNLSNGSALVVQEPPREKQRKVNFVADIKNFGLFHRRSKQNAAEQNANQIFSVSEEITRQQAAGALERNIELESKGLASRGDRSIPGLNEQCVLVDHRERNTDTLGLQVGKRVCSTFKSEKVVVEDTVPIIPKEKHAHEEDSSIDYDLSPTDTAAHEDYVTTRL

[7] = inhibitors of intracellular T. cruzi replication, confirmation, NIH3T3 host cells, beta-gal luminescence (AID 2044); assay type: functional, cell-based;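 further: intracellular parasites grown in NIH/3T3 mouse fibroblasts as host cells; luminescent beta-galactosidase reporter signal from transgenic T. cruzi replicating inside host cells; inhibitors lower the luminescence signal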
[8] = target: T2, Heat shock factor protein 1 (Mus musculus, UniProt P38532); assay: inhibition of MG132-induced HSE-luciferase signal, confirmation, cell-based, NIH3T3, luminescence, dose retest (AID 2382); assay type: functional;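 further: NIH3T3 fibroblasts with HSF1-driven luciferase reporter stressed by proteasome inhibitor MG132; luminescence from HSF1-driven luciferase expression after 8 hours of MG132 stress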
T2 sequence (P38532 whole entry): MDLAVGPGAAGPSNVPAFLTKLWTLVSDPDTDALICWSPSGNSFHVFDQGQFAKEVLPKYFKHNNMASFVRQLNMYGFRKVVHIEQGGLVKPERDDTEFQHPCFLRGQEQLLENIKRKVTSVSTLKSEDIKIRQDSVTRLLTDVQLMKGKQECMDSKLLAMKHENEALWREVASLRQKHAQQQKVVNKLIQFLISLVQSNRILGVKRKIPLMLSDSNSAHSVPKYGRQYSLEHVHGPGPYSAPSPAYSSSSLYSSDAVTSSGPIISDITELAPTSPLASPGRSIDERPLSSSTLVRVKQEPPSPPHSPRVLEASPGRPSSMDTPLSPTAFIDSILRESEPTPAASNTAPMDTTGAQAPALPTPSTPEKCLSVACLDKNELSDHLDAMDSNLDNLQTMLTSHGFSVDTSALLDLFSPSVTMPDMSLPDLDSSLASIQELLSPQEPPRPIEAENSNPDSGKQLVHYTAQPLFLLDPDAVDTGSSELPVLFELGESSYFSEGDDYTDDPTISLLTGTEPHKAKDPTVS

Aminopeptidase N = target: T3, Aminopeptidase N (Plasmodium falciparum FcB1/Columbia, UniProt O96935); assay: P. falciparum M1AAP inhibitors, biochemical, fluorogenic H-Leu-NHMec substrate, 1536-well (AID 1445); design: species or system Plasmodium falciparum 3D7, 3D7
T3 sequence (O96935 whole entry): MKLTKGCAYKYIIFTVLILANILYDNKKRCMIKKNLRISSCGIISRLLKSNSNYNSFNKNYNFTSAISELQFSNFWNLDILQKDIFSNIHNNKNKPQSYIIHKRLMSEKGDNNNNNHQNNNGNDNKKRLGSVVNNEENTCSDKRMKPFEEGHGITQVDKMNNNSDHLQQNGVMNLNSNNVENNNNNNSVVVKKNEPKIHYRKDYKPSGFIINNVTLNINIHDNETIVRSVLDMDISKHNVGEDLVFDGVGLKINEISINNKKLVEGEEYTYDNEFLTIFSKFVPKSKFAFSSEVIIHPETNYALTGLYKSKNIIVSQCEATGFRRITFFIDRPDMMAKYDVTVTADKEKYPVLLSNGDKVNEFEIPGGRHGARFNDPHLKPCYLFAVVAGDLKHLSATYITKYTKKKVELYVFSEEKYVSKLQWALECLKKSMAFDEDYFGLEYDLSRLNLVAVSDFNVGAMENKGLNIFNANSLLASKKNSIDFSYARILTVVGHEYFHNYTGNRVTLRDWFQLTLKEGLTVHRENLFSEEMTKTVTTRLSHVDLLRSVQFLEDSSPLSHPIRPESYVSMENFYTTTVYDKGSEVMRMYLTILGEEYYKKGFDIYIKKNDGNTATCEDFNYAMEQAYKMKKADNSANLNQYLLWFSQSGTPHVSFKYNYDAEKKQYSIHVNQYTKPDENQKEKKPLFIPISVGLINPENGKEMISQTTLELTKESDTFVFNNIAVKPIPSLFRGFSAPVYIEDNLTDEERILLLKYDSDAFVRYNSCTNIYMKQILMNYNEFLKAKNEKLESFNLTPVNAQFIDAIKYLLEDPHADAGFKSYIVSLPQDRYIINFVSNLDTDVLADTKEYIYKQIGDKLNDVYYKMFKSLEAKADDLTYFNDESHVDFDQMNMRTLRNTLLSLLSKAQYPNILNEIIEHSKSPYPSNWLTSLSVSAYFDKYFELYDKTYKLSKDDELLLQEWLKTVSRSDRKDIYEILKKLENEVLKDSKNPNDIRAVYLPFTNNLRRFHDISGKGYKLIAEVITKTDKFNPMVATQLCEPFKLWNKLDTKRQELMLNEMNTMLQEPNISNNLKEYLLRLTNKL

[9] = target: T4, RNA-binding protein pos-1 (Caenorhabditis elegans, UniProt G5EF15); assay: inhibitors of POS-1/mex-3 RNA binding, dose response, biochemical, fluorescence polarization (AID 1964);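 further: purified POS-1 fused to maltose binding protein made in E. coli; potency of compounds blocking POS-1 binding to fluorescent RNA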
T4 sequence (G5EF15 whole entry): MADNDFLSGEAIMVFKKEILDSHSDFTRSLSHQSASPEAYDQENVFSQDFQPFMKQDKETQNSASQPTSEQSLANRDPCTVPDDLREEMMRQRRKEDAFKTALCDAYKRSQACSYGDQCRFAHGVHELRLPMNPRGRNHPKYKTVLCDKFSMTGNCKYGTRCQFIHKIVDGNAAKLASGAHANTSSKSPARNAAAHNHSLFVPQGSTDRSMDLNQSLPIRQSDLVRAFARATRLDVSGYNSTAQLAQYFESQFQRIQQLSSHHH

[10] = target: T5, Zinc finger protein mex-5 (Caenorhabditis elegans, UniProt Q9XUB2); assay: MEX-5/TCR-2 RNA interaction inhibitors, dose response, biochemical, C. elegans, fluorescence polarization (AID 1960)
T5 sequence (Q9XUB2 whole entry): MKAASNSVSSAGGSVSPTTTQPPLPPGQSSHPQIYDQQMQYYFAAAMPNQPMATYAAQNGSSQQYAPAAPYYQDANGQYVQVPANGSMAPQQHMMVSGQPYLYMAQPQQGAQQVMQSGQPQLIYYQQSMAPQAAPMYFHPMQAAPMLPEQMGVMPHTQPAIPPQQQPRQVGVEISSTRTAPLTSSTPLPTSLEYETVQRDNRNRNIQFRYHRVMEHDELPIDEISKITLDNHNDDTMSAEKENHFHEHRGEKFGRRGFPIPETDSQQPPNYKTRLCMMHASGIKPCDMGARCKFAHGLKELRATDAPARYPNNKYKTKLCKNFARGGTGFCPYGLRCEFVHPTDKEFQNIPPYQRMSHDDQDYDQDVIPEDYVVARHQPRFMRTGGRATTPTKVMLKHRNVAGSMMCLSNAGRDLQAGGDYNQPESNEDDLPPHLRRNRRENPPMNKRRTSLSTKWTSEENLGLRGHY

[11] = target: T6, Ubiquitin-conjugating enzyme E2 N (Homo sapiens, UniProt P61088); assay type: functional;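 further: Dose-response confirmation in a TR-FRET assay detecting UBC13-driven polyubiquitin chain formation, inhibition measured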
T6 sequence (P61088 whole entry): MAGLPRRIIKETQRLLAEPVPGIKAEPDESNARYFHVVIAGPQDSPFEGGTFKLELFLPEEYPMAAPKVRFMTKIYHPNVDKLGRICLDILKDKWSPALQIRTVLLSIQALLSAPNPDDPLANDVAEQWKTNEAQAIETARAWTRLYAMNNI

[12] = NIH-3T3 fibroblast cytotoxicity, dose response, cytotoxicity control, cell-based, fluorescence, Alamar Blue, secondary assay (AID 2327); assay type: functional;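 further: NIH-3T3 mouse fibroblasts cultured with fluconazole at 8 µg/mL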
[13] = target: T7, Calpain-2 catalytic subunit (Sus scrofa, UniProt P43367); assay: pig calpain II inhibitor potency, dose response, biochemical, fluorogenic peptide substrate (AID 1420); assay type: functional
T7 sequence (P43367 whole entry): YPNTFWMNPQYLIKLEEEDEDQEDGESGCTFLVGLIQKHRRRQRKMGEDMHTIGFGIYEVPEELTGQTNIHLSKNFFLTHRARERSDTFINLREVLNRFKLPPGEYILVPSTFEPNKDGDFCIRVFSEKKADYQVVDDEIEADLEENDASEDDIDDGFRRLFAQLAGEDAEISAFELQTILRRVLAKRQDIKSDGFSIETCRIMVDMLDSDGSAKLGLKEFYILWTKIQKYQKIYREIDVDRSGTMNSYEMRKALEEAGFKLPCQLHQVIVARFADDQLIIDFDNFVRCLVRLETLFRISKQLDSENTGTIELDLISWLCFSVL

[14] = target: T2, Heat shock factor protein 1; assay: HSF1 potentiators in luciferase reporter cells, confirmation, cell-based, NIH3T3, luminescence, dose retest (AID 435004); assay type: functional;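 further: stress induced by proteasome inhibitor MG132 added 30 min after compound; luciferase reporter driven by HSF1 response element in NIH3T3 cells; actives raise luminescence as potentiators of the MG132 stress response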

Q: What does the source list for `Cc1cccc(C(=O)Nc2ccc(CC(=O)O)cc2)c1`?
A: IC50 [1]: > 80 µM (inactive); EC50 [2]: 12.9 µM (active); EC50 [3]: 28.5 µM (active); EC50 [4]: 16.9 µM (active)

Q: Which IC50 [1] does the source give for `NC(=O)C1CCN(C(=O)COc2ccc3ccccc3c2Br)CC1` here?
A: > 80 µM (inactive)

Q: What does the source list for `Cc1cccc2cc(CN(CCCN(C)C)C(S)=NCCc3ccccc3)c(O)nc12`?
A: EC50 [5]: > 30 µM (not active); EC50 [6]: 4.22 µM (active); EC50 [7]: 0.69 µM (active)

Q: Which results are given for `O=C(CCCc1nc(-c2ccccc2Cl)no1)NC1CCCC1`?
A: IC50 [1]: > 80 µM (inactive); EC50 [8]: > 195 µM (not active); EC50 [2]: 0.822 µM (active); EC50 [3]: 0.606 µM (active); EC50 [4]: 5.93 µM (active)

Q: For `C#Cc1ccc(CN2CCCC(C(=O)Nc3ccccc3Oc3cccnc3)C2)cc1` (stereo not drawn), which EC50 [6] is on record?
A: 1.68 µM (active)

Q: With `O=C(COC(=O)c1c(Cl)cccc1Cl)Nc1ccccc1Br` as the compound, how does the EC50 [6] read?
A: 1.33 µM (active)

Q: For `COc1ncnc2sc3c(c12)CCCC3`, which EC50 [6] is on record?
A: 5.96 µM (active)

Q: For `CN1C(=O)S/C(=C/c2cccn2-c2cccc(C(=O)O)c2)C1=O`, which IC50 (Aminopeptidase N) is on record?
A: 84.3 µM (active)

Q: What about the EC50 [9] of the same compound?
A: > 300 µM (not active)

Q: What about the EC50 [10] of the same compound?
A: > 300 µM (not active)

Q: With `O=C(CCCN1C(=O)/C(=C/c2ccccc2Cl)SC1=S)NNC(=O)c1ccc(Cl)cc1` as the compound, how does the IC50 [1] read?
A: > 80 µM (inactive)

Q: What about the IC50 [11] of the same compound?
A: > 20 µM (inactive)

Q: For `Cc1c(CCOC(=O)CC23CC4CC(CC(C4)C2)C3)sc[n+]1Cc1ccccc1`, which EC50 [12] is on record?
A: > 160 µM (inactive)

Q: And the EC50 [6]?
A: 5.96 µM (active)

Q: With `CCN(CC)c1ncnc2scc(C3COc4ccccc4O3)c12` (stereo not drawn) as the compound, how does the IC50 [13] read?
A: 10.3 µM (not active)

Q: What about the EC50 [6] of the same compound?
A: 5.31 µM (active)

Q: For `CC1CCN(CCCOc2ccc(OCc3ccccc3)cc2)CC1`, which EC50 [6] is on record?
A: 0.531 µM (active)

Q: Which results are given for `COc1ccc(/C=C2\SC(=S)N(CCC(=O)Nc3cccc(O)c3)C2=O)cc1`?
A: IC50 [1]: > 80 µM (inactive); EC50 [14]: 58.8 µM (active)
